Measured values published in patent US5091191A (Yoshitomi Pharmaceutical Industries, Ltd., priority 1988, dated 1992).

What was measured:
[1] = Behaviour of finely-powdered Compound in weakly acid solution; assay type: physicochemical
[2] = Solubility of the Compound at different pH values (FIG. 1); assay type: physicochemical; settings: weakly acid to neutral, about pH 3 to about pH 7
From the text: FIG. 1 is a graph showing the solubility of the Compound at different ph valves. FIGS. 2, 3 and 4 are the graphs showing the dissolution test results of the Compound and the tablets of Reference Example 1, the fine granules of Example 1 and the tablets of Example 2, respectively.

**Q.** With `Cc1ccc(-n2ccnc2)cc1C(O)c1c(C)cc(C(=O)[O-])cc1C.[Na+]` (stereo not drawn) as the compound, how does the “conversion to corresponding free acid” value ([1]; added to a weakly acid solution) read?
**A.** the corresponding free acid was produced through chemical reaction

**Q.** And the “dissolution-improving effect of finely-powdering” value ([1]; weakly acid solution)?
**A.** there was not found any dissolution-improving effect

**Q.** What about the solubility [2] of the same compound?
**A.** lowered under weakly acid to neutral conditions
